Data published in patent publication US12569554B2, “Triterpene saponin analogues” (priority 2017, dated 2026).
Like-named read-outs stand apart in the source and are kept apart here.

What was measured:
Hemolytic assay = assay type: cell-based
Description: (§3) Natural and synthetic QS-21 (SQS-21 or SAPONEX®) and a variety of analogs were tested for hemolytic activity.

Stability at 37° C. = assay type: physicochemical; conditions: for degraded: after two weeks at 37° C.
Description: as §3

[1] = assay type: in vivo, mice; conditions: for body weight loss: 50 mcg TiterQuil-1055, 20 mcg QS-21
Description: (§1) Adacel doses containing 1, 0.3, and 0.1 mcg of pertussis toxin per mouse were administered subcutaneously (SC, with no immunological adjuvant), using 2 vaccinations 4 weeks apart, resulting in a mean of 1,618 mcg, 898 mcg, and 107 mcg respectively of anti-PT antibody per ml of serum drawn 2 weeks after the second vaccination. The 0.1 mcg dose was indistinguishable from unvaccinated controls (96 mcg/ml). A 0.5 mcg dose of Adacel was selected for a pharmacology/toxicology (pharm/tox) study. The serological results for this study are summarized in FIG. 3 of the present application.
(§2) A pharm/tox study was conducted in 7 groups of 5 mice: 1) PBS alone, 2) 50 mcg TiterQuil-1055, 3) 20 mcg QS-21, 4) Adacel 2.5 mcg pertussis toxin (1/5 the human dose), 5) Adacel+QS-21 (20 mcg QS-21), 6) Adacel+TiterQuil-1055 (50 mcg), 7) Adacel+TiterQuil-1055 (50 mcg). Mice were vaccinated SC on days 1 and 15, weighed daily, and bled and sacrificed on day 22, except for group 7 which was sacrificed on day 29. […] Histopathology of 33 different tissues was performed on all mice. Detected abnormalities were restricted to the liver. […] This abnormality was short lived and was no detected in group 7, which was sacrificed one week after groups 1-6.

mice [2] = assay: Adacel pharm/tox study, serology with TiterQuil-1055 or QS-21; assay type: in vivo; conditions: for augmentation of antibody levels compared to immunization with Adacel alone: adjuvant given with Adacel
Description: as §1, §2

mice [3] = assay: Pilot pharmacology/toxicology study: blood chemistry, hematology, histopathology; assay type: in vivo; conditions: 50 mcg TiterQuil-1055, 20 mcg QS-21, Adacel 2.5 mcg pertussis toxin, alone or combined; for changes in blood chemistry or hematology results: SC days 1 and 15; for liver histopathology, hepatocellular cytoplasmic vacuolization: SC days 1 and 15, sacrificed day 22
Description: as §2

[4] = Companion toxicity study, body mass; assay type: in vivo, mice; conditions: three days after immunization
Description: as §3

humans = conditions: cited from earlier work
[5] = Engerix-B study, body weight; assay type: in vivo, mice
mice [6] = assay: Engerix-B immunogenicity, anti-HBsAg antibody; assay type: in vivo
Description: Experiments were conducted with Engerix-B (HBV adult vaccine) in groups of 10 mice. Initially 3 mcg, 1 mcg, 0.3 mcg, 0.1 mcg, and 0.03 mcg Engerix-B doses per mouse were tested.

[7] = groups of 5 mice, 2 weeks after second SC immunization

QS-21 [reference compound]
hemolytic activity (Hemolytic assay): highly hemolytically active
degraded (Stability at 37° C.): 20%
body weight loss [1]: 8-9%
augmentation of antibody levels compared to immunization with Adacel alone (mice [2]; [7]): 10 fold
changes in blood chemistry or hematology results (mice [3]): No changes
liver histopathology, hepatocellular cytoplasmic vacuolization (mice [3]): Mild vacuolar changes
body mass lost on average ([4]; 20 mcg QS-21): 8-10%
tolerated dose in cancer patients (humans; cancer patients, above it local and systemic side effects): 100 to 150 µg
maximum dose for healthy patients (humans; healthy patients): ~50 µg
highest practical tolerable dose (humans; well (non-cancer) adult and child recipients): 25 to 50 µg

CC1O[C@@H](OC2C(O)[C@@H](NC(=O)CCCCCCCCCCC(=O)O)C(CO)O[C@H]2OC(=O)[C@]23CCC(C)(C)CC2C2=CCC4C5(C)CC[C@H](O)C(C)(C=O)C5CCC4(C)C2(C)CC3O)C(O)C(O)[C@H]1O[C@@H]1OC[C@@H](O)C(O)C1O (stereo partly shown) [Compound I-4]
hemolytic activity (Hemolytic assay): much lower or undetectable hemolytic activity
degraded (Stability at 37° C.): without detectable degradation
stability (Stability at 37° C.; compared with QS-21): increased stability
weight loss ([5]; 30 mcg TiterQuil-1055 dose): No weight loss
weight loss ([5]; 100 mcg TiterQuil-1055 dose): 4%
weight loss ([5]; 300 mcg TiterQuil-1055 dose): 5%
weight loss ([1]; 50 mcg TiterQuil-1055, 20 mcg QS-21, Adacel 2.5 mcg pertussis toxin, alone or combined, SC days 1 and 15, weighed daily): no other mice
body weight loss [1]: No weight loss
antibody levels 2 weeks later (mice [2]; Adacel with TiterQuil-1055, a further 2 weeks later): further increased
antibody levels (mice [2]; groups of 5 mice, 2 weeks after second SC immunization, Adacel alone or Adacel with TiterQuil-1055): 52,344
augmentation of antibody levels compared to immunization with Adacel alone (mice [2]; [7]): 70 fold
changes in blood chemistry or hematology results (mice [3]): No changes
liver histopathology, hepatocellular cytoplasmic vacuolization (mice [3]): No changes at all
body mass gained on average [4]: 5%
serologic effect (mice [6]; 10 mcg TiterQuil-1055 mixed with 0.3 mcg Engerix-B): no serologic effect
increase in antibody levels compared to Engerix-B alone (mice [6]; 30 mcg TiterQuil-1055 mixed with 0.3 mcg Engerix-B): > 6 fold
increase in antibody levels compared to Engerix-B alone (mice [6]; 100 mcg TiterQuil-1055 mixed with 0.3 mcg Engerix-B): 5 fold
antibody response at higher adjuvant doses (mice [6]; TiterQuil-1055 doses above 50 mcg per mouse): Lack of antibody increase or decreasing responses
